Biological target: PI3K delta (Homo sapiens, UniProt O00329)
Test: Luciferase-coupled chemiluminescence kinase assay (ATP consumption, KinaseGlo)
Assay type: biochemical
In short: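 ATP consumption measured by KinaseGlo luciferase chemiluminescence after a 2 h reaction at ambient temperature, with ATP at or below the kinase KM. Ten inhibitor concentrations per curve; IC50 from four-parameter nonlinear regression.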

PI3K delta, sequence (O00329 whole entry): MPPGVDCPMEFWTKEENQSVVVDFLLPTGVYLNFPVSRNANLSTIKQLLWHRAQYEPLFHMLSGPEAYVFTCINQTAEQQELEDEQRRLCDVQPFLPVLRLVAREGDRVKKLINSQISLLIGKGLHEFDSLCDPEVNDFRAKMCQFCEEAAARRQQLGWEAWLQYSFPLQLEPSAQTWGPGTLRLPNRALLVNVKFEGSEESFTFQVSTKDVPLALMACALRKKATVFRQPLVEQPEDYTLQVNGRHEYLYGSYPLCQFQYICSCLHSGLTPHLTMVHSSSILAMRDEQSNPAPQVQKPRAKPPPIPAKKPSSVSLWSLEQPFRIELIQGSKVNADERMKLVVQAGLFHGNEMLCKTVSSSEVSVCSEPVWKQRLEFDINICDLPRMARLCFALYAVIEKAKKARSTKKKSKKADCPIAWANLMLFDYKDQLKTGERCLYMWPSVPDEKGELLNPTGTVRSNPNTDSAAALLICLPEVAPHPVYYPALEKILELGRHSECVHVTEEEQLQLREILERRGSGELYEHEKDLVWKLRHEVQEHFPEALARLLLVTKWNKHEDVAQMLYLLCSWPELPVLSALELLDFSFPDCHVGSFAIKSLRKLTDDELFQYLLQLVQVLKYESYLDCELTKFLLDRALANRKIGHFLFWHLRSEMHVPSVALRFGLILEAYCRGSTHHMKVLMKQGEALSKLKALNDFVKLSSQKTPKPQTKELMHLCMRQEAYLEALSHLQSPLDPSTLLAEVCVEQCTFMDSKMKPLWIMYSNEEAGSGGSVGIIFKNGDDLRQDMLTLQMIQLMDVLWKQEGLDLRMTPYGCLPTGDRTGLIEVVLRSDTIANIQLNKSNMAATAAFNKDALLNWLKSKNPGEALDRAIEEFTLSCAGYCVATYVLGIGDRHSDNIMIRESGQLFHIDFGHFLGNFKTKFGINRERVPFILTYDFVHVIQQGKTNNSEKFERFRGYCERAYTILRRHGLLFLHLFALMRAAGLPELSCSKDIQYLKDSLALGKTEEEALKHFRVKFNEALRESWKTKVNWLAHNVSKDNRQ
PI3K delta, sequence (P27986 whole entry partner): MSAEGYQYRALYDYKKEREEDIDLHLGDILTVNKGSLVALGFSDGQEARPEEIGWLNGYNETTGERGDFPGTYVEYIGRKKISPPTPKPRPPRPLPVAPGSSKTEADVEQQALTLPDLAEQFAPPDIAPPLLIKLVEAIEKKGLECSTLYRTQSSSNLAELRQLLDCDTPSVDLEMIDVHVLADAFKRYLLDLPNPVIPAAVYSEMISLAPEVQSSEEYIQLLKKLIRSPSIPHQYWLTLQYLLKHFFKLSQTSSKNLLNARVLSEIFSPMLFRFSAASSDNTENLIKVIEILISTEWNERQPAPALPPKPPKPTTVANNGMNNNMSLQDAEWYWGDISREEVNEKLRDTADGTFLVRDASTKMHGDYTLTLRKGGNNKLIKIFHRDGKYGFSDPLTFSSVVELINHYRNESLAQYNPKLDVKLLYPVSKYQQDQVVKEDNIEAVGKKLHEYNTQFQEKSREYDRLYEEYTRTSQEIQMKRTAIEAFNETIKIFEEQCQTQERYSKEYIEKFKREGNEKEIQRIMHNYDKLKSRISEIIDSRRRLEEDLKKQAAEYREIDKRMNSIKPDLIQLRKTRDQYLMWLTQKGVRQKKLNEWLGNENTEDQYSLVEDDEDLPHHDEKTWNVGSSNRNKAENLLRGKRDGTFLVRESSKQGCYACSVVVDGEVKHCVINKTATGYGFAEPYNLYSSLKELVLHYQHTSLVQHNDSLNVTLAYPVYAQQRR

Structure (SMILES) | IC50
Cn1c(C(=O)NC2CCc3ccccc32)nc2c(N3CCC(n4c(=O)[nH]c5ccccc54)CC3)ncnc21 (stereo not drawn) [Compound 47, N-(2,3-dihydro-1H-inden-1-yl)-9-methyl-6-[4-(2-oxo-2,3-dihydro-1H-benzimidazol-1-yl)piperidin-1-yl]-9H-purine-8-carboxamide] | 0.05 to 0.25 µM
CCCNC(=O)c1nc2c(N3CCC(n4c(=O)[nH]c5ccccc54)CC3)ncnc2n1C [Compound 69, 9-methyl-6-[4-(2-oxo-2,3-dihydro-1H-benzimidazol-1-yl)piperidin-1-yl]-N-propyl-9H-purine-8-carboxamide] | 0.05 to 0.25 µM
CCn1c(-c2nnc(C(C)C)o2)nc2c(N3CCC(n4c(=O)[nH]c5ccccc54)CC3)ncnc21 [Compound 180, 1-(1-{9-ethyl-8-[5-(1-methylethyl)-1,3,4-oxadiazol-2-yl]-9H-purin-6-yl}piperidin-4-yl)-1,3-dihydro-2H-benzimidazol-2-one] | < 0.05 µM
Cn1c(C(=O)NCCCCO)nc2c(N3CCC(n4c(=O)[nH]c5ccccc54)CC3)ncnc21 [Compound 42, N-(4-hydroxybutyl)-9-methyl-6-[4-(2-oxo-2,3-dihydro-1H-benzimidazol-1-yl)piperidin-1-yl]-9H-purine-8-carboxamide] | 0.05 to 0.25 µM
Cn1cc(-c2nc3c(N4CCN(S(=O)(=O)c5ccc(Cl)cc5Cl)CC4)ncnc3n2C)cn1 [Compound 392, 6-{4-[(2,4-dichlorophenyl)sulfonyl]piperazin-1-yl}-9-methyl-8-(1-methyl-1H-pyrazol-4-yl)-9H-purine] | 0.5 to 1.5 µM
Cn1c(C(=O)NCC2CCCCC2)nc2c(N3CCC4(CC3)C(=O)Nc3ccccc34)ncnc21 [Compound 88, N-(cyclohexylmethyl)-9-methyl-6-(2-oxo-1,2-dihydro-1′H-spiro[indole-3,4′-piperidin]-1′-yl)-9H-purine-8-carboxamide] | 0.5 to 1.5 µM
CC(C)CCNC(=O)c1nc2c(N3CCC(n4c(=O)[nH]c5ccccc54)CC3)ncnc2n1C [Compound 72, 9-methyl-N-(3-methylbutyl)-6-[4-(2-oxo-2,3-dihydro-1H-benzimidazol-1-yl)piperidin-1-yl]-9H-purine-8-carboxamide] | 0.05 to 0.25 µM
CN(CCC#N)C(=O)c1nc2c(N3CCC4(CC3)C(=O)Nc3ccccc34)ncnc2n1C [Compound 39, N-(2-cyanoethyl)-N,9-dimethyl-6-(2-oxo-1,2-dihydro-1′H-spiro[indole-3,4′-piperidin]-1′-yl)-9H-purine-8-carboxamide] | 0.5 to 1.5 µM
Cn1c(C(=O)N[C@H]2CC[C@H](O)CC2)nc2c(N3CCC(n4c(=O)[nH]c5ccccc54)CC3)ncnc21 [Compound 111, N-(trans-4-hydroxycyclohexyl)-9-methyl-6-[4-(2-oxo-2,3-dihydro-1H-benzimidazol-1-yl)piperidin-1-yl]-9H-purine-8-carboxamide] | < 0.05 µM
CCn1c(C(=O)N2CC(F)(F)C2)nc2c(N3CCC4(CC3)C(=O)Nc3ccccc34)ncnc21 [Compound 216, 1′-{8-[(3,3-difluoroazetidin-1-yl)carbonyl]-9-ethyl-9H-purin-6-yl}spiro[indole-3,4′-piperidin]-2(1H)-one] | < 0.05 µM
CCn1c(C(=O)NC2COC2)nc2c(N3CCC4(CC3)C(=O)Nc3ccccc34)ncnc21 [Compound 226, 9-ethyl-N-oxetan-3-yl-6-(2-oxo-1,2-dihydro-1′H-spiro[indole-3,4′-piperidin]-1′-yl)-9H-purine-8-carboxamide] | < 0.05 µM
O=C(NCC1CC1)c1nc2c(N3CCC(n4c(=O)[nH]c5ccccc54)CC3)ncnc2n1C1CC1 [Compound 171, 9-Cyclopropyl-N-(cyclopropylmethyl)-6-[4-(2-oxo-2,3-dihydro-1H-benzimidazol-1-yl)piperidin-1-yl]-9H-purine-8-carboxamide] | 0.05 to 0.25 µM
Cn1cc(-c2nc3c(N4CCN(c5ccccc5CNC(=O)C5CC5)CC4)ncnc3n2C)cn1 [Compound 362, N-[(2-{4-[9-methyl-8-(1-methyl-1H-pyrazol-4-yl)-9H-purin-6-yl]piperazin-1-yl)phenyl)methyl]cyclopropane-carboxamide] | 0.5 to 1.5 µM
Cn1c(-c2cn[nH]c2-c2ccccc2)nc2c(N3CCC(n4c(=O)[nH]c5ccccc54)CC3)ncnc21 [Compound 286, 1-{1-[9-methyl-8-(5-phenyl-1H-pyrazol-4-yl)-9H-purin-6-yl]piperidin-4-yl}-1,3-dihydro-2H-benzimidazol-2-one] | < 0.05 µM
Cn1cc(-c2nc3c(N4CCN(c5ccc(OCC6CC6)cc5)CC4)ncnc3n2C)cn1 [Compound 360] | 0.5 to 1.5 µM
Cn1c(-c2ccc(C(F)(F)F)nc2)nc2c(N3CCC4(CC3)C(=O)Nc3ccccc34)ncnc21 [Compound 327, 1′-{9-methyl-8-[6-(trifluoromethyl)pyridin-3-yl]-9H-purin-6-yl}spiro[indole-3,4′-piperidin]-2(1H)-one] | < 0.05 µM
COc1ccc(S(=O)(=O)N2CCN(c3ncnc4c3nc(-c3cnn(C)c3)n4C)CC2)cc1OC [Compound 387, 6-(4-{[3,4-bis(methyloxy)phenyl]sulfonyl}-piperazin-1-yl)-9-methyl-8-(1-methyl-1H-pyrazol-4-yl)-9H-purine] | 0.5 to 1.5 µM

Structure (SMILES) | IC50
CN(C)CCN1C(=O)C2(CCN(c3ncnc4c3nc(C(=O)NCC3CC3)n4C)CC2)c2ccccc21 [Compound 397, N-(cyclopropylmethyl)-6-{1-[2-(dimethylamino)ethyl]-2-oxo-1,2-dihydro-1′H-spiro[indole-3,4′-piperidin]-1′-yl}-9-methyl-9H-purine-8-carboxamide] | 0.5 to 1.5 µM
Cn1c(-n2ccnc2)nc2c(N3CCC(n4c(=O)[nH]c5ccccc54)CC3)ncnc21 [Compound 124, 1-{1-[8-(1H-Imidazol-1-yl)-9-methyl-9H-purin-6-yl]piperidin-4-yl}-1,3-dihydro-2H-benzimidazol-2-one] | 0.05 to 0.25 µM
Cn1c(C(=O)NCCc2ccccn2)nc2c(N3CCC(n4c(=O)[nH]c5ccccc54)CC3)ncnc21 [Compound 51, 9-methyl-6-[4-(2-oxo-2,3-dihydro-1H-benzimidazol-1-yl)piperidin-1-yl]-N-(2-pyridin-2-ylethyl)-9H-purine-8-carboxamide] | 0.5 to 1.5 µM
CCCn1cc(-c2nc3c(N4CCC(n5c(=O)[nH]c6ccccc65)CC4)ncnc3n2C)cn1 [Compound 147, 1-{1-[9-methyl-8-(1-propyl-1H-pyrazol-4-yl)-9H-purin-6-yl]piperidin-4-yl}-1,3-dihydro-2H-benzimidazol-2-one] | < 0.05 µM
CCn1c(-c2cncnc2)nc2c(N3CCC4(CC3)C(=O)Nc3ccccc34)ncnc21 [Compound 292, 1′-(9-ethyl-8-pyrimidin-5-yl-9H-purin-6-yl)spiro[indole-3,4′-piperidin]-2(1H)-one] | < 0.05 µM
Cn1c(C(=O)NCC(C)(C)O)nc2c(N3CCC4(CC3)C(=O)Nc3ccccc34)ncnc21 [Compound 83, N-(2-hydroxy-2-methylpropyl)-9-methyl-6-(2-oxo-1,2-dihydro-1′H-spiro[indole-3,4′-piperidin]-1′-yl)-9H-purine-8-carboxamide] | 0.05 to 0.25 µM
Cn1c(-c2cccnc2)nc2c(N3CCC(n4c(=O)[nH]c5ccccc54)CC3)ncnc21 [Compound 268, 1-[1-(9-Methyl-8-pyridin-3-yl-9H-purin-6-yl)piperidin-4-yl]-1,3-dihydro-2H-benzimidazol-2-one] | < 0.05 µM
CC(C)CCn1cc(-c2nc3c(N4CCC(n5c(=O)[nH]c6ccccc65)CC4)ncnc3n2C)cn1 [Compound 233, 1-(1-{9-methyl-8-[1-(3-methylbutyl)-1H-pyrazol-4-yl]-9H-purin-6-yl}piperidin-4-yl)-1,3-dihydro-2H-benzimidazol-2-one] | 0.05 to 0.25 µM
CC(=O)c1ccc(S(=O)(=O)N2CCN(c3ncnc4c3nc(-c3cnn(C)c3)n4C)CC2)cc1 [Compound 384, 1-[4-({4-[9-methyl-8-(1-methyl-1H-pyrazol-4-yl)-9H-purin-6-yl]piperazin-1-yl)sulfonyl)phenyl]ethanone] | 0.5 to 1.5 µM
Cn1cc(-c2nc3c(N4CCN(S(=O)(=O)Cc5ccccc5)CC4)ncnc3n2C)cn1 [Compound 371, 9-methyl-8-(1-methyl-1H-pyrazol-4-yl)-6-{4-[(phenylmethyl)sulfonyl]piperazin-1-yl)-9H-purine] | 0.25 to 0.5 µM
COc1ncc(-c2nc3c(N4CCC(n5c(=O)[nH]c6ccccc65)CC4)ncnc3n2C)c(OC)n1 [Compound 308, 1-(1-{8-[2,4-bis(methyloxy)pyrimidin-5-yl]-9-methyl-9H-purin-6-yl)piperidin-4-yl)-1,3-dihydro-2H-benzimidazol-2-one] | 0.05 to 0.25 µM
Cn1c(C(=O)NCC2CC2)nc2c(N3CCCC(n4c(=O)[nH]c5ccccc54)C3)ncnc21 (stereo not drawn) [Compound 256, N-(cyclopropylmethyl)-9-methyl-6-[3-(2-oxo-2,3-dihydro-1H-benzimidazol-1-yl)piperidin-1-yl]-9H-purine-8-carboxamide] | 0.25 to 0.5 µM
Cn1cc(-c2nc3c(N4CCC(n5c(=O)[nH]c6ncccc65)CC4)ncnc3n2C)cn1 [Compound 269, 1-{1-[9-methyl-8-(1-methyl-1H-pyrazol-4-yl)-9H-purin-6-yl]piperidin-4-yl}-1,3-dihydro-2H-imidazo[4,5-b]pyridin-2-one] | < 0.05 µM
CCn1c(C(=O)NCC2CC2)nc2c(N3CCC4(CC3)C(=O)Nc3ccccc34)ncnc21 [Compound 163, N-(cyclopropylmethyl)-9-ethyl-6-(2-oxo-1,2-dihydro-1′H-spiro[indole-3,4′-piperidin]-1′-yl)-9H-purine-8-carboxamide] | < 0.05 µM
Cn1c(C(=O)N2CCCC2)nc2c(N3CCC4(CC3)C(=O)NCN4c3ccccc3)ncnc21 [Compound 8, 8-[9-methyl-8-(pyrrolidin-1-ylcarbonyl)-9H-purin-6-yl]-1-phenyl-1,3,8-triazaspiro[4.5]decan-4-one] | 0.25 to 0.5 µM
CCn1c(C(=O)NCC2CCOCC2)nc2c(N3CCC(n4c(=O)[nH]c5ccccc54)CC3)ncnc21 [Compound 156, 9-ethyl-6-[4-(2-oxo-2,3-dihydro-1H-benzimidazol-1-yl)piperidin-1-yl]-N-(tetrahydro-2H-pyran-4-ylmethyl)-9H-purine-8-carboxamide] | < 0.05 µM
